Molecular target: T1, 5HT2 receptors (Rattus norvegicus, UniProt P14842)
T1 construct: their external jugular veins and thoracic aortas dissected free of connective tissue; from tissue; host or cells: external jugular vein of male Wistar rats
Experiment: Apparent dissociation constants (KB) for 5HT2 receptors determined in the rat jugular vein (antagonism of serotonin contraction)
Conditions: antagonist incubated one hour, 37° C., maleate salt, read-out: Apparent Dissociation Constants for 5HT2 receptors, -Log Kb ± S.E. (converted)
Procedure: An initial optimum resting force of 1 and 4 g was applied to the jugular vein and aorta, respectively. […] Exp. Ther., 205, 400 (1978). Alpha receptor antagonist activity was evaluated in the aorta.

T1 sequence (P14842 whole entry): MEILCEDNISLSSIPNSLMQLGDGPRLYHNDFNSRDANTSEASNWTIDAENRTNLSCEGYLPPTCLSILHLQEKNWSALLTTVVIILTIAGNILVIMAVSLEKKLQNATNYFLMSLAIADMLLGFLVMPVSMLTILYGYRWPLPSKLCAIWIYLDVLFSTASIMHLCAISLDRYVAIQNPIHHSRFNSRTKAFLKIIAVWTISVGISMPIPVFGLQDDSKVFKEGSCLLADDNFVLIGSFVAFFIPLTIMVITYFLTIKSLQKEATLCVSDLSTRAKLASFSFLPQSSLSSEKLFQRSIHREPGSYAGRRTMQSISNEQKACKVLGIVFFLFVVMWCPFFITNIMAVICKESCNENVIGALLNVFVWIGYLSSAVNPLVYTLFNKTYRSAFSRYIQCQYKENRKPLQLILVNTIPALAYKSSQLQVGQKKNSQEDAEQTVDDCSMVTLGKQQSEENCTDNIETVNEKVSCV

Structure (SMILES)	Kb [nM]
CC(C)n1cc2c3c(cccc31)[C@H]1C[C@@H](C(=O)OCC3CCCO3)CN(C)[C@@H]1C2 (stereo partly shown)	6.31
CC(C)n1cc2c3c(cccc31)[C@H]1C[C@@H](C(=O)OC3CCOCC3)CN(C)[C@@H]1C2	0.129
CC(C)n1cc2c3c(cccc31)[C@H]1C[C@@H](C(=O)OCC3CCCCO3)CN(C)[C@@H]1C2 (stereo partly shown)	1.91
CC(C)n1cc2c3c(cccc31)[C@H]1C[C@@H](C(=O)OCCCC3CCCO3)CN(C)[C@@H]1C2 (stereo partly shown)	5.62

From patent US4704395A, “Cyclic ether esters of 2-substituted-6-(substituted and unsubstituted) dihydrolysergic acid useful as 5HT receptor antagonists” (Eli Lilly and Company, priority 1985, dated 1987)
